Type in all cases: in vivo
Assay [1] relates to phrenic and hypoglossal nerve activity. The assay can be described thus: Protocol 2: central neural apnea model with concurrent hypoxia, rats pretreated with retinoic acid. As for the experimental part: Respiratory-related activity was recorded from the left phrenic and hypoglossal nerves in urethane-anesthetized (1.7 g/kg), vagotomized, paralyzed and mechanically ventilated rats (see Strey et al., 2012 for details). Rats are slightly hyperventilated, so a small amount of inspired CO2 was delivered to achieve target, normal PCO2. A pre-study apneic threshold test was performed. The apneic threshold was determined by lowering arterial PCO2 until phrenic respiratory activity ceased. […] Following 15 min of stable phrenic and hypoglossal burst discharge, baseline phrenic and hypoglossal burst amplitudes and blood gases were measured. Rats were then subjected to one of the following protocols:
Protocol 2) Five (5) brief central neural apneas followed by a 25 sec ventilator apnea (nadir O2 saturation ˜70%) in rats pretreated with vehicle (“control”) or retinoic acid (see below for details). The results are depicted in FIGS. 2A, 2B, and 3.
Protocol 1 tests the hypothesis that retinoic acid is sufficient to elicit inactivity-induced respiratory motor facilitation. Protocol 2 tests the hypothesis that retinoic acid administration can circumvent hypoxia-induced constraints on inactivity-induced respiratory motor facilitation. Phrenic burst amplitude was recorded for up to 60 min following treatment, and an apneic threshold test was performed at the end of the protocol.
To model a central neural apnea in anesthetized rats, inflow of CO2 was ceased by stopcock valve to reduce arterial PCO2 below the apneic threshold. Following a 10 second period of no phrenic firing activity (signaling absent breaths) the ventilator was turned off for 25 seconds to model the hypoxia that would normally be experienced in a human. At the end of 25 seconds, the ventilator was turned back on and PaCO2 was restored. This experience was repeated five times, with five minutes separating each episode.

In assay [2] the test system is apnea and hypopnea events. The assay can be described thus: Chronic intermittent hypoxia (CIH) model, diaphragm EMG recording of apneic and hypoapneic events. The settings on record: rats; intraperitoneal 500 mcg/kg daily during 7 day CIH plus day 8 dose; FIG. 5.
Description: Briefly, the experimental and control animals were placed in adjoining, identical chambers that were maintained at room temperature and were large enough to allow unimpeded movement. The fraction of inspired oxygen in each chamber was regulated by microprocessor-controlled miniature solenoids attached to each chamber by high-pressure tubing. For the CIH protocol, the chamber was flushed with 100% nitrogen for 30 sec followed by 30 sec of 100% O2 at a low flow rate. The time course of change in the fraction of inspired oxygen for the experimental chamber was determined using an oxygen analyzer (Sensormedics, Milan, Italy): a decline to a nadir of 6.5 to 7% oxygen, remaining at that level for 5 to 7 sec, and then gradually increasing to 21% over the next 30 sec during which oxygen flowed into the chamber. This cycle was repeated each minute over 8 daytime hours (8 to 9 am to 4 to 5 pm) for 7 days. Control rats were exposed to the same sequence of events as experimental rats, with the exception that room air was used instead of nitrogen and oxygen. […] The experimental animals were administered intra peritoneal trans-retinoic acid (500 mcg/kg) daily throughout the 7 day CIH exposure with an additional dose given the morning of diaphragm electromyography (EMG) recordings (day 8; total of 8 injections) […] and hypoapneic events were recorded via conventional diaphragm EMG measurements.
The test system of assay [3] is phrenic nerve activity. The assay can be described thus: Protocol 1: intrathecal retinoic acid injections, phrenic nerve recording in anesthetized rats. The settings on record: three 10 μL intrathecal injections, 50 μM each, 60 min after final injection, vs vehicle control, FIGS. 1A, 1B.
Protocol: Respiratory-related activity was recorded from the left phrenic and hypoglossal nerves in urethane-anesthetized (1.7 g/kg), vagotomized, paralyzed and mechanically ventilated rats (see Strey et al., 2012 for details). Rats are slightly hyperventilated, so a small amount of inspired CO2 was delivered to achieve target, normal PCO2. A pre-study apneic threshold test was performed. The apneic threshold was determined by lowering arterial PCO2 until phrenic respiratory activity ceased. […] Following 15 min of stable phrenic and hypoglossal burst discharge, baseline phrenic and hypoglossal burst amplitudes and blood gases were measured. Rats were then subjected to one of the following protocols: Protocol 1) Three (3) 10 μL intrathecal injections (50 μM each) of retinoic acid or three (3) 10 μL of vehicle (aCSF in 10% DMSO). […] Protocol 1 tests the hypothesis that retinoic acid is sufficient to elicit inactivity-induced respiratory motor facilitation. […] Phrenic burst amplitude was recorded for up to 60 min following treatment, and an apneic threshold test was performed at the end of the protocol.

In the case of `CC1=C(/C=C/C(C)=C/C=C/C(C)=C/C(=O)O)C(C)(C)CCC1` [retinoic acid, all-trans retinoic acid], the CO2 apneic threshold result in assay [1] (anesthetized rats, given before central neural apnea, 60 min post injection, vs control, FIG. 3) was “reduced the CO2 apneic threshold relative to a control groups”. The phrenic burst amplitude result in assay [1] (anesthetized rats, intrathecal 10 μL, 50 μM before central neural apneas with hypoxia, 60 min after, FIG. 2A) is “significantly higher than pre-stimulation levels”. In addition, the hypoglossal burst amplitude entry in assay [1] (anesthetized rats, intrathecal 10 μL, 50 μM before central neural apneas with hypoxia, 60 min after, FIG. 2B) is recorded as “significantly higher than pre-stimulation levels”. In addition, in assay [1] (pretreatment, intermittent inactivity with concurrent hypoxia, FIG. 4C), the “enhanced phrenic motor output following inactivity with concurrent hypoxia” value was “rescues then enhanced phrenic motor output”. For the same compound, in assay [2], the “number of apnea and hypopnea events (diaphragm EMG)” value is “reduces the number of apnea and hypopnea events”. In addition, the entries for the “phrenic nerve activity (phrenic motor output) as a percentage of baseline activity” value in assay [3] and in assay [3] (listed as trans-retinoic acid) were “persistently increases phrenic motor output” and “significantly higher than control group”, respectively.

These data come from patent US11045441B2, “Use of retinoic acid and analogs thereof to treat central neural apneas” (Wisconsin Alumni Research Foundation, priority 2015, dated 2021).
